# Patent publication US20100247461A1, “ANTI-INFLAMMATORY COMPLEXES” (Signum Biosciences, Inc., priority 2009, published 2010)
# System: MPO activity (neutrophil infiltration) in P. acnes-injected ear
# Assay: P. acnes-induced mouse ear model of inflammation - MPO endpoint
# Format: in vivo
# Settings: dose of 0.4 mg/20 μL
# Description: The methods for a model of P. acnes-inflammation are described elsewhere (Nakatsuji et al., J Invest Dermatol, 2008, 128: 2451-2457).
# The protocol for inducing inflammation using P. acnes bacterial challenge on the mouse ear was slightly modified from the method described previously (Natatsuji et al., 2008). Briefly, Swiss Webster (ICR, 6-8 weeks old) mouse ears were injected with living P. acnes culture intradermally. An amount of 20 μl aliquots of living P. acnes (ATCC 6919, 3×10^6 CFU) suspended in PBS was intradermally injected in the central portion of the ear. As a control, 20 μl of PBS was injected into control animals.
# To assay for inhibition of dermal neutrophil infiltration by AFC complexes, a standard method was used (see Bradley et al., J Invest Dermatol, 1982,78: 206-209; Young et al., J Invest Dermatol, 1983, 80: 48-52; De Young et al, Agents Actions, 1989, 26: 335-41; and Rao et al., Inflammation, 1993, 17: 723-41). Briefly, 6mm biopsy punches taken from both compound-treated ears as well as non-treated control ears were homogenized in 400 μl of 0.5% hexadecyltrimethylammonium bromide in 50 mM potassium phosphate buffer (pH 6.0) using the Fast Prep 24 (MP Biomedicals, Solon, Ohio). Supernatants were assayed for MPO activity using a model EL 340 96-well plate reader (BioTek Instruments, Winooski, Vt.). The percent inhibition of neutrophil infiltration by each AFC complex was determined by comparing the average MPO levels in the presence and absence of these compounds. The percent inhibition of MPO was determined by taking the average MPO activity of compound-treated ears and dividing it by the average MPO activity of 12 ears that only received the P. acnes challenge and subtracting that value from 100%. These values were corrected for the MPO activity of normal, non P. acnes-treated mouse ears of littermate controls. Summary of MPO activity ranges determined from an MPO activity assay for dexamethasone (administered at a dose of 1.6 mg/20 μL), clobetasol (administered at a dose of 0.1 mg/20 μL), salicylic acid (administered at a dose of 0.4 mg/20 μL), AFC (administered at a dose of 0.4 mg/20 μL), AFC-Strontium complex (administered at a dose of 0.4 mg/20 μL) and SFC-disodium are presented in Table 4. “+” indicates a range of 0-20%, “++” indicates a range of 20-40%, and “+++” indicates >40% inhibition.
structure (smiles),measurement,value
"CC(=O)N[C@@H](CSC/C=C(\C)CC/C=C(\C)CCC=C(C)C)C(=O)O [AFC, N-acetyl-S-farnesyl-L-cysteine, reference compound]",MPO % Inhibition,+++ (“+++” indicates >40% inhibition)
